Experimental findings from ChEMBL document CHEMBL1201862, “PubChem BioAssay data set” (2004) are described below.

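Growth conditions: 96-well plates. Treatment: test compound, 48 hours, 5 concentrations. Analysis: linear interpolation between bracketing concentrations; unreached endpoints set to highest concentration. Abbreviation: GI50, concentration required for 50% inhibition of growth.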 Active and inactive are the calls of the source. No stated cut-off is given here; in the data, active = GI50 up to about 1.1 µM and inactive = higher.

Common to all, as to assay: NCI-60 cell line screen, 48 h
Test [1] deals with A498.
Test [2] has as its system CAKI-1.
In test [3] the test system is CCRF-CEM.
Test [4] concerns COLO 205.
Test [5] relates to DU-145.
For test [6], the system named is HCT-116.
The test system of test [7] is LOX IMVI.
Test [8] relates to NCI-H226.
Test [9] deals with NCI-H460.
Test [10] relates to OVCAR-3.
Test [11] has as its system OVCAR-8.
Test [12] concerns SF-268.
The subject of test [13] is SK-MEL-5.
Test [14] has as its system SNB-19.
Test [15] concerns SNB-75.
Test [16] concerns SR.
The subject of test [17] is SW-620.
Test [18] deals with TK-10.
Test [19] concerns UO-31.
Test [20] concerns M14.

For `O=C(OCc1ccccc1)C(Cc1ccc(OCc2ccccc2)cn1)NC(=O)C(F)(F)F` (centres undefined), the GI50 in test [1] is > 100 µM (inactive); in [2], > 100 µM (inactive); in test [3], > 10 µM (inactive); in test [4] it was 27.4 µM (inactive); in test [5], > 100 µM (inactive); in test [6], > 100 µM (inactive). In addition, the GI50 in [7] is 92.3 µM (inactive); in test [8], > 100 µM (inactive); in [9] it was > 100 µM (inactive); in test [10], 71.3 µM (inactive); in test [11], > 100 µM (inactive); in test [12], 98.2 µM (inactive). In addition, the GI50 is 35.4 µM (inactive) in [13]; > 100 µM (inactive) in test [14]; 3.01 µM (inactive) in [15]; 86.9 µM (inactive) in test [16]; > 100 µM (inactive) in test [17]; > 100 µM (inactive) in test [18]. In addition, the GI50 in test [19] is 65.5 µM (inactive).

For the molecule `C/C=C1/CN2CC[C@@H]3c4ccccc4N4[C@H](C(=O)OC)[C@H]1C[C@H]2[C@]34/C=C/C1=COC[C@@H]2[C@H]1C[C@H]1c3c(c4ccccc4n3C)C[C@@H]2N1C`, the GI50 in test [1] is 4.59 µM (inactive); in test [2], 4.1 µM (inactive); in test [3], 5.31 µM (inactive); in [4] it was 3.4 µM (inactive); in [5], 5.12 µM (inactive); in test [6], 3.89 µM (inactive). For the same molecule, the GI50 in test [7] was 4.19 µM (inactive); in [20], 4.37 µM (inactive); in test [8] it was 4.5 µM (inactive); in test [9], 4.04 µM (inactive); in [10], 4.33 µM (inactive); in test [11] it was 4.11 µM (inactive). Besides, the GI50 in [12] is 3.61 µM (inactive); in test [13], 3.89 µM (inactive); in test [14] it was 3.64 µM (inactive); in test [16] it was 6.1 µM (inactive); in test [17] it was 3.83 µM (inactive); in test [18], 3.86 µM (inactive). The GI50 in test [19] is 3.99 µM (inactive).

As for `Cn1c(SCc2c[nH]c3ccccc23)nnc1-c1ccc(Cl)cc1Cl`, the GI50 in test [1] was 16.3 µM (inactive); in test [2], 20 µM (inactive); in test [3] it was 12.8 µM (inactive); in test [4] it was 14 µM (inactive); in test [5], 17.6 µM (inactive); in test [6] it was 23.4 µM (inactive). In addition, the GI50 in test [7] is 5.18 µM (inactive); in [20], 11.4 µM (inactive); in test [9], 12.5 µM (inactive); in test [10] it was 12.1 µM (inactive); in [11], 21.2 µM (inactive); in test [12], 23.9 µM (inactive). Moreover, the GI50 in [13] was 14.5 µM (inactive); in [14], 16.8 µM (inactive); in test [15] it was 1.29 µM (inactive); in test [16], 4.23 µM (inactive); in [17], 19.5 µM (inactive); in [18] it was 17.1 µM (inactive). In addition, the GI50 in test [19] was 18 µM (inactive).

Take `CCOC(=O)O/C(=C\c1ccc(OC)cc1)c1c(OC(=O)OCC)n(C(=O)OCC)c2ccccc12`: the GI50 in test [1] is 14.2 µM (inactive); in [2], 57.9 µM (inactive); in [3], 21.8 µM (inactive); in test [4], > 100 µM (inactive); in [5], 42.2 µM (inactive); in test [6], 33.9 µM (inactive). The GI50 was 42.3 µM (inactive) in test [7]; 23.6 µM (inactive) in test [20]; 32.9 µM (inactive) in test [8]; 15.1 µM (inactive) in [9]; 59.4 µM (inactive) in test [10]; 59.2 µM (inactive) in test [11]. The GI50 in test [12] is 47.1 µM (inactive); in test [13] it was 39 µM (inactive); in test [15] it was 25.1 µM (inactive); in test [16], 15.3 µM (inactive); in test [17], 24.3 µM (inactive); in [18], 31.3 µM (inactive). Moreover, the GI50 in test [19] is 29.1 µM (inactive).

Turning to `Cc1ccc(S(=O)(=O)NC(C(=O)O)C(C)C)cc1` (centres undefined), the GI50 in [1], in [2], in test [3], in [5], in test [6] and in [7] was > 100 µM (inactive) throughout. Also, the GI50 in test [20], in [8], in test [9], in test [10], in test [11] and in [12] was > 100 µM (inactive) in each case. In addition, the GI50 in test [13], in test [14], in test [15], in test [16], in test [17] and in test [18] was > 100 µM (inactive) throughout. Moreover, the GI50 in test [19] was > 100 µM (inactive).

Regarding `COC(OC)(c1ccccc1)C(Br)Br`, the GI50 in test [1] was > 100 µM (inactive); in test [2], 24.6 µM (inactive); in test [3], 13.6 µM (inactive); in test [4], 17.3 µM (inactive); in test [5], > 100 µM (inactive); in test [6], 17.9 µM (inactive). Further, the GI50 in test [7] is 28.2 µM (inactive); in [20], 18.6 µM (inactive); in test [8], > 100 µM (inactive); in test [9], > 100 µM (inactive); in test [10] it was 48.3 µM (inactive); in test [11], > 100 µM (inactive). In addition, the GI50 in test [12] was 42.6 µM (inactive); in test [13] it was 67.5 µM (inactive); in [14], > 100 µM (inactive); in [15], 81.1 µM (inactive); in test [16] it was 21 µM (inactive); in [17], 15.8 µM (inactive). The GI50 in test [19] is > 100 µM (inactive).

As for `O=C1CC(CC(O)[C@@H]2CCCC[C@@H]2O)CC(=O)N1c1ccccc1` (some centres undefined), the GI50 in [1], in [2], in test [3], in [5], in test [6] and in test [7] was > 100 µM (inactive) in each case. The GI50 in test [20], in test [8], in test [9], in test [10], in [11] and in [12] was > 100 µM (inactive) in each case. Moreover, the GI50 in test [13], in test [14], in test [15], in test [16], in [17] and in test [18] was > 100 µM (inactive) each time. In addition, the GI50 in test [19] is > 100 µM (inactive).

On to `CC(=O)C(=C(I)I)c1ccccc1`, for which the GI50 was 22 µM (inactive) in [1]; 1.84 µM (inactive) in test [2]; 11.5 µM (inactive) in [3]; 15.5 µM (inactive) in [4]; 29.7 µM (inactive) in test [5]; 15.4 µM (inactive) in test [6]. Besides, the GI50 in [7] is 18.1 µM (inactive); in [20], 14.5 µM (inactive); in test [8], 11.5 µM (inactive); in test [9], 33.4 µM (inactive); in test [10] it was 16.7 µM (inactive); in [11], 18.3 µM (inactive). Further, the GI50 in test [12] is 25.1 µM (inactive); in test [13], 15.1 µM (inactive); in test [14], 18.5 µM (inactive); in test [16], 13.1 µM (inactive); in [17], 18.3 µM (inactive); in test [19] it was 19.2 µM (inactive).

On to `c1csc(-c2ccsc2-c2ccsc2)c1`, for which the GI50 in test [1] is > 100 µM (inactive); in [2], > 100 µM (inactive); in [3], 45.2 µM (inactive); in test [4] it was 73.8 µM (inactive); in test [5], > 100 µM (inactive); in test [6], 60.8 µM (inactive). Also, the GI50 was > 100 µM (inactive) in [7]; > 100 µM (inactive) in test [20]; 0.0264 µM (active) in test [8]; 97.9 µM (inactive) in [9]; 16.8 µM (inactive) in test [10]; 91.2 µM (inactive) in test [11]. Moreover, the GI50 was 92.5 µM (inactive) in test [12]; 70 µM (inactive) in [13]; > 100 µM (inactive) in test [15]; 33.1 µM (inactive) in test [16]; > 100 µM (inactive) in test [17]; > 100 µM (inactive) in test [18]. Besides, the GI50 in test [19] was 80 µM (inactive).

For the molecule `O=C1c2ccccc2-c2nnc(-c3ccc(Cl)cc3)cc21`, the GI50 in test [1], in test [2], in test [3], in [4], in test [5] and in test [6] was > 10 µM (inactive) throughout. The GI50 in [7], in [20], in [8], in test [9], in [10] and in test [11] was > 10 µM (inactive) throughout. In addition, the GI50 in test [12], in test [13], in test [14], in test [15], in test [16] and in test [17] was > 10 µM (inactive) in each case. The GI50 in test [19] was > 10 µM (inactive).
